Experimental data reported in ChEMBL document CHEMBL1201862, “PubChem BioAssay data set” (2004).
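Tested at 5 concentrations; 48 h exposure; 96-well plates; endpoints linearly interpolated, else capped at highest concentration. GI50 is the concentration that inhibits growth by half.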 Calls of active or inactive are those of the source. No stated cut-off is given here; in the data, active = GI50 up to about 1.1 µM and inactive = higher.

Legend:
Experiment in all cases: NCI tumour cell line growth inhibition, 48 h
786-0 = system: 786-0
A498 = system: A498
A549 = system: A549
ACHN = system: ACHN
CAKI-1 = system: CAKI-1
CCRF-CEM = system: CCRF-CEM
COLO 205 = system: COLO 205
DLD-1 = system: DLD-1
DMS-273 = system: DMS-273
EKVX = system: EKVX
HCC 2998 = system: HCC 2998
HCT-116 = system: HCT-116
HCT-15 = system: HCT-15
HL-60 = system: HL-60
HOP-18 = system: HOP-18
HOP-62 = system: HOP-62
HT-29 = system: HT-29
IGROV-1 = system: IGROV-1
K562 = system: K562
KM-20L2 = system: KM-20L2
KM12 = system: KM12
LXFL 529 = system: LXFL 529
M14 = system: M14
M19-MEL = system: M19-MEL
MOLT-4 = system: MOLT-4
Malme-3M = system: Malme-3M
NCI-H226 = system: NCI-H226
NCI-H23 = system: NCI-H23
NCI-H460 = system: NCI-H460
NCI-H522 = system: NCI-H522
OVCAR-3 = system: OVCAR-3
OVCAR-4 = system: OVCAR-4
OVCAR-5 = system: OVCAR-5
OVCAR-8 = system: OVCAR-8
RPMI-8226 = system: RPMI-8226
RXF 393 = system: RXF 393
RXF 631 = system: RXF 631
SF-295 = system: SF-295
SF-539 = system: SF-539
SK-MEL-2 = system: SK-MEL-2
SK-MEL-5 = system: SK-MEL-5
SK-OV-3 = system: SK-OV-3
SN12C = system: SN12C
SNB-19 = system: SNB-19
SNB-75 = system: SNB-75
SNB-78 = system: SNB-78
SR = system: SR
SW-620 = system: SW-620
TK-10 = system: TK-10
U-251 = system: U-251
UACC-257 = system: UACC-257
UACC-62 = system: UACC-62
UO-31 = system: UO-31
XF498 = system: XF498
DMS-114 = system: DMS-114
HOP-92 = system: HOP-92
SF-268 = system: SF-268
SK-MEL-28 = system: SK-MEL-28
LOX IMVI = system: LOX IMVI

N=S(=O)(c1ccccc1)c1ccccc1[N+](=O)[O-] (centres undefined) was tested, and the GI50 (786-0) was > 100 µM (inactive), the GI50 (A498) was > 100 µM (inactive) and the GI50 (A549) was > 100 µM (inactive). The GI50 (ACHN) was > 100 µM (inactive), the GI50 (CAKI-1) was > 100 µM (inactive) and the GI50 (CCRF-CEM) was > 100 µM (inactive). The GI50 (COLO 205) was > 100 µM (inactive), the GI50 (DLD-1) was > 100 µM (inactive) and the GI50 (DMS-273) was > 100 µM (inactive). The GI50 (EKVX) was > 100 µM (inactive), the GI50 (HCC 2998) was > 100 µM (inactive) and the GI50 (HCT-116) was > 100 µM (inactive). The GI50 (HCT-15) was greater than 100 µM, the GI50 (HL-60) was > 100 µM (inactive) and the GI50 (HOP-18) was > 100 µM (inactive). The GI50 (HOP-62) was > 100 µM (inactive), the GI50 (HT-29) was > 100 µM (inactive) and the GI50 (IGROV-1) was > 100 µM (inactive). For the same molecule, the GI50 (K562) was > 100 µM (inactive), the GI50 (KM-20L2) was > 100 µM (inactive) and the GI50 (KM12) was > 100 µM (inactive). For the same molecule, the GI50 (LXFL 529) was > 100 µM (inactive), the GI50 (M14) was > 100 µM (inactive) and the GI50 (M19-MEL) was > 100 µM (inactive). The GI50 (MOLT-4) was > 100 µM (inactive), the GI50 (Malme-3M) was > 100 µM (inactive) and the GI50 (NCI-H226) was > 100 µM (inactive). The GI50 (NCI-H23) was > 100 µM (inactive), the GI50 (NCI-H460) was > 100 µM (inactive) and the GI50 (NCI-H522) was > 100 µM (inactive). For the same molecule, the GI50 (OVCAR-3) was > 100 µM (inactive), the GI50 (OVCAR-4) was > 100 µM (inactive) and the GI50 (OVCAR-5) was > 100 µM (inactive). The GI50 (OVCAR-8) was > 100 µM (inactive), the GI50 (RPMI-8226) was > 100 µM (inactive) and the GI50 (RXF 393) was > 100 µM (inactive). For the same molecule, the GI50 (RXF 631) was > 100 µM (inactive), the GI50 (SF-295) was > 100 µM (inactive) and the GI50 (SF-539) was > 100 µM (inactive). The GI50 (SK-MEL-2) was 68.5 µM (inactive), the GI50 (SK-MEL-5) was > 100 µM (inactive) and the GI50 (SK-OV-3) was > 100 µM (inactive). The GI50 (SN12C) was > 100 µM (inactive), the GI50 (SNB-19) was > 100 µM (inactive) and the GI50 (SNB-75) was > 100 µM (inactive). The GI50 (SNB-78) was > 100 µM (inactive), the GI50 (SR) was > 100 µM (inactive) and the GI50 (SW-620) was > 100 µM (inactive). For the same molecule, the GI50 (TK-10) was > 100 µM (inactive), the GI50 (U-251) was > 100 µM (inactive) and the GI50 (UACC-257) was > 100 µM (inactive). The GI50 (UACC-62) was > 100 µM (inactive), the GI50 (UO-31) was > 100 µM (inactive) and the GI50 (XF498) was > 100 µM (inactive).

With N/N=c1\c2ccccc2c2cc3c(cc12)/c(=N/N)c1ccccc13 the GI50 (786-0) was > 100 µM (inactive), the GI50 (A549) was > 100 µM (inactive) and the GI50 (ACHN) was > 100 µM (inactive). The GI50 (CCRF-CEM) was > 100 µM (inactive), the GI50 (COLO 205) was > 100 µM (inactive) and the GI50 (DLD-1) was > 100 µM (inactive). For the same molecule, the GI50 (DMS-114) was > 100 µM (inactive), the GI50 (DMS-273) was > 100 µM (inactive) and the GI50 (EKVX) was > 100 µM (inactive). For the same molecule, the GI50 (HCC 2998) was > 100 µM (inactive), the GI50 (HCT-116) was > 100 µM (inactive) and the GI50 (HCT-15) was greater than 100 µM. For the same molecule, the GI50 (HL-60) was > 100 µM (inactive), the GI50 (HOP-18) was > 100 µM (inactive) and the GI50 (HOP-62) was > 100 µM (inactive). The GI50 (HOP-92) was > 100 µM (inactive), the GI50 (HT-29) was > 100 µM (inactive) and the GI50 (IGROV-1) was > 100 µM (inactive). For the same molecule, the GI50 (K562) was > 100 µM (inactive), the GI50 (KM-20L2) was > 100 µM (inactive) and the GI50 (KM12) was > 100 µM (inactive). The GI50 (LXFL 529) was > 100 µM (inactive), the GI50 (M14) was > 100 µM (inactive) and the GI50 (M19-MEL) was > 100 µM (inactive). For the same molecule, the GI50 (MOLT-4) was > 100 µM (inactive), the GI50 (Malme-3M) was > 100 µM (inactive) and the GI50 (NCI-H226) was > 100 µM (inactive). For the same molecule, the GI50 (NCI-H23) was > 100 µM (inactive), the GI50 (NCI-H460) was > 100 µM (inactive) and the GI50 (NCI-H522) was > 100 µM (inactive). For the same molecule, the GI50 (OVCAR-4) was > 100 µM (inactive), the GI50 (OVCAR-5) was > 100 µM (inactive) and the GI50 (OVCAR-8) was > 100 µM (inactive). The GI50 (RPMI-8226) was > 100 µM (inactive), the GI50 (RXF 393) was > 100 µM (inactive) and the GI50 (RXF 631) was > 100 µM (inactive). The GI50 (SF-268) was > 100 µM (inactive), the GI50 (SF-295) was > 100 µM (inactive) and the GI50 (SF-539) was > 100 µM (inactive). The GI50 (SK-MEL-28) was > 100 µM (inactive), the GI50 (SK-MEL-2) was > 100 µM (inactive) and the GI50 (SK-MEL-5) was > 100 µM (inactive). For the same molecule, the GI50 (SK-OV-3) was > 100 µM (inactive), the GI50 (SN12C) was > 100 µM (inactive) and the GI50 (SNB-19) was > 100 µM (inactive). The GI50 (SNB-75) was 59.4 µM (inactive), the GI50 (SNB-78) was > 100 µM (inactive) and the GI50 (SR) was 76.2 µM (inactive). The GI50 (SW-620) was > 100 µM (inactive), the GI50 (U-251) was > 100 µM (inactive) and the GI50 (UACC-257) was > 100 µM (inactive). The GI50 (UACC-62) was > 100 µM (inactive) and the GI50 (UO-31) was > 100 µM (inactive).

In the case of COc1ccc(-c2cc(=O)c3c(O)c(O)c(OC)cc3o2)cc1O, the GI50 (786-0) is reported as > 100 µM (inactive), the GI50 (A498) is reported as > 100 µM (inactive) and the GI50 (A549) is reported as > 100 µM (inactive). For the same molecule, the GI50 (ACHN) was > 100 µM (inactive), the GI50 (CAKI-1) was > 100 µM (inactive) and the GI50 (CCRF-CEM) was > 100 µM (inactive). The GI50 (COLO 205) was > 100 µM (inactive), the GI50 (DLD-1) was > 100 µM (inactive) and the GI50 (DMS-273) was > 100 µM (inactive). For the same molecule, the GI50 (EKVX) was > 100 µM (inactive), the GI50 (HCC 2998) was > 100 µM (inactive) and the GI50 (HCT-116) was > 100 µM (inactive). The GI50 (HCT-15) was greater than 100 µM, the GI50 (HL-60) was > 100 µM (inactive) and the GI50 (HOP-18) was > 100 µM (inactive). The GI50 (HOP-62) was > 100 µM (inactive), the GI50 (HOP-92) was > 100 µM (inactive) and the GI50 (HT-29) was > 100 µM (inactive). The GI50 (IGROV-1) was > 100 µM (inactive), the GI50 (K562) was > 100 µM (inactive) and the GI50 (KM-20L2) was > 100 µM (inactive). The GI50 (KM12) was > 100 µM (inactive), the GI50 (LOX IMVI) was > 100 µM (inactive) and the GI50 (LXFL 529) was > 100 µM (inactive). For the same molecule, the GI50 (M14) was > 100 µM (inactive), the GI50 (M19-MEL) was > 100 µM (inactive) and the GI50 (MOLT-4) was > 100 µM (inactive). The GI50 (Malme-3M) was > 100 µM (inactive), the GI50 (NCI-H226) was > 100 µM (inactive) and the GI50 (NCI-H23) was > 100 µM (inactive). For the same molecule, the GI50 (NCI-H460) was 57.9 µM (inactive), the GI50 (NCI-H522) was 53.5 µM (inactive) and the GI50 (OVCAR-3) was > 100 µM (inactive). For the same molecule, the GI50 (OVCAR-4) was > 100 µM (inactive), the GI50 (OVCAR-5) was > 100 µM (inactive) and the GI50 (OVCAR-8) was > 100 µM (inactive). The GI50 (RPMI-8226) was > 100 µM (inactive), the GI50 (RXF 393) was > 100 µM (inactive) and the GI50 (RXF 631) was 92 µM (inactive). For the same molecule, the GI50 (SF-268) was 84.5 µM (inactive), the GI50 (SF-295) was > 100 µM (inactive) and the GI50 (SF-539) was > 100 µM (inactive). For the same molecule, the GI50 (SK-MEL-28) was > 100 µM (inactive), the GI50 (SK-MEL-2) was > 100 µM (inactive) and the GI50 (SK-MEL-5) was > 100 µM (inactive). For the same molecule, the GI50 (SK-OV-3) was > 100 µM (inactive), the GI50 (SN12C) was > 100 µM (inactive) and the GI50 (SNB-19) was > 100 µM (inactive). The GI50 (SNB-75) was 31.5 µM (inactive), the GI50 (SR) was 44.5 µM (inactive) and the GI50 (SW-620) was > 100 µM (inactive). For the same molecule, the GI50 (TK-10) was > 100 µM (inactive), the GI50 (U-251) was > 100 µM (inactive) and the GI50 (UACC-257) was > 100 µM (inactive). The GI50 (UACC-62) was > 100 µM (inactive), the GI50 (UO-31) was > 100 µM (inactive) and the GI50 (XF498) was > 100 µM (inactive).
